{"source": "paper PMC5667422", "about": "(Theranostics, 2017)", "system": "integrin α2β1 expression in A549 cells", "experiment": "Integrin α2β1 expression in A549 cells after doxorubicin treatment", "format": "cell-based, human", "details": "doxorubicin 4 μg/mL", "data": [{"smiles": "COc1cccc2c1C(=O)c1c(O)c3c(c(O)c1C2=O)C[C@@](O)(C(=O)CO)C[C@@H]3O[C@H]1C[C@H](N)[C@H](O)[C@H](C)O1", "note": "[doxorubicin]", "values": [{"measurement": "integrin α2 and β1 protein levels by Western blot after treatment", "setting": "48 h, semi-quantitative, p < 0.01", "value": "markedly higher level of both integrin proteins"}, {"measurement": "integrin α2β1 expression by FACS after treatment", "setting": "48 h vs wild-type", "value": "clear shift in the abundance of integrin α2β1"}]}]}
